According to patent US11612580B2, “Compositions for inhibiting 3′ repair exonuclease 2 and methods of screening for such compositions” (THE BOARD OF REGENTS OF THE UNIVERSITY OF TEXAS SYSTEM, priority 2017, dated 2023):

Assays:
msh2^−/− cells = assay: puro(A)10 polymerase slippage assay, puromycin resistant colonies; format: cell-based, mouse; conditions: msh2^−/− cells with puro(A)10 reporter; 10 μM TREX2 inhibitor with puromycin; colonies counted about day 10; DMSO versus compounds p<0.02 (FIGS. 8B, 8C)
[1] = system: mouse embryonic stem (ES) cells; assay: reduction of mutations in mouse embryonic stem (ES) cells; format: cell-based; conditions: hits from Chembridge Diverset screen
Excerpt: Assays as described here were used to screen a Chembridge Diverset library (30,000 compounds). […] These small molecules are: 4-benzoyl-2-methyphenyl (2-nitrophenoxy) acetate; N-benzyl-2-([bis(furan-2-yl)-1,2,4-triazin-3-yl] sulfanyl) acetamide; 6-(benzylcarbamoyl)-1-methycyclohex-3-ene-1-carboxylic acid; 8-(phenylamino)naphthalene-1-sulfonic acid; and benzyl 6-(furan-2-yl)-3-methyl-4-oxo-4,5,6,7-tetrahydro-1H-indole-2-carboxylate. […] TX2Is appear to be nontoxic to cells and TREX2-deletion was asymptomatic for >50% of life span.

Row | SMILES | spontaneous polymerase slippage (fraction of puromycin resistant cells) (msh2^−/− cells) | mutations in mouse embryonic stem (ES) cells [1]
1 | CC1(C(=O)O)CC=CCC1C(=O)NCc1ccccc1 (stereo not drawn) [Compound 11, 6-(benzylcarbamoyl)-1-methycyclohex-3-ene-1-carboxylic acid] | reduce spontaneous polymerase slippage | reduce a range of mutations
2 | O=S(=O)(O)c1cccc2cccc(Nc3ccccc3)c12 [Compound 6, 8-(phenylamino)naphthalene-1-sulfonic acid] | reduce spontaneous polymerase slippage | reduce a range of mutations
3 | Cc1c(C(=O)OCc2ccccc2)[nH]c2c1C(=O)CC(c1ccco1)C2 (stereo not drawn) [benzyl 6-(furan-2-yl)-3-methyl-4-oxo-4,5,6,7-tetrahydro-1H-indole-2-carboxylate] | – | reduce a range of mutations
4 | O=C(CSc1nnc(-c2ccco2)c(-c2ccco2)n1)NCc1ccccc1 [Compound 10, N-benzyl-2-([bis(furan-2-yl)-1,2,4-triazin-3-yl]sulfanyl) acetamide] | reduce spontaneous polymerase slippage | reduce a range of mutations
5 | Cc1cc(C(=O)c2ccccc2)ccc1OC(=O)COc1ccccc1[N+](=O)[O-] [Compound 1, 4-benzoyl-2-methyphenyl (2-nitrophenoxy) acetate] | reduce spontaneous polymerase slippage | reduce a range of mutations
